From ChEMBL document CHEMBL1150106, “Carvone and perillaldehyde interfere with the serum-induced formation of filamentous structures in Candida albicans at substantially lower concentrations than those causing significant inhibition of growth” (J Nat Prod, 2002) come the findings set out here.

The source made the active and inactive calls. The calls are words filed in the database; no cut-off is given here.

Assay type in all cases: functional, organism-based
Experiment [1] concerns Candida albicans. Briefly: Anticandidal activity against Candida albicans H317 assessed as inhibition of transformation of organism from cellular yeast to filamentous form at 125 uM preincubated for 2 hrs before addition of fetal bovine serum measured after 22 hrs by phase contrast microscopy.
For experiment [2], the system named is Candida albicans. Briefly: Growth inhibition of cellular yeast form of Candida albicans H317 at 5 mM after 2 hrs.
The subject of experiment [3] is Candida albicans. Briefly: Anticandidal activity against Candida albicans H317 assessed as inhibition of transformation of organism from cellular yeast to filamentous form at 250 uM preincubated for 2 hrs before addition of fetal bovine serum measured after 22 hrs by phase contrast microscopy.

On to `C=C(C)[C@@H]1CC=C(C=O)CC1`, for which the outcome with Candida albicans [1] and with Candida albicans [2] was Active.
For `C=C(C)[C@H]1CC=C(C)C(=O)C1`, the outcome in the experiment with Candida albicans [3] and in the experiment on Candida albicans [2] was Active.
